Measurements: US20200085831A1, “NASAL COMPOSITIONS STIMULATING CILIARY ACTIVITY” (Innotesto BVBA, priority 2013, published 2020)

Experiments:
[1] = adult population, Nawrot et al. 2003, cited from earlier work
ciliated cells = experiment: In vitro experiments with ciliated cells (ascorbic acid); type: cell-based; conditions: several in vitro experiments
Procedure: When ascorbic acid is added to the present disclosure composition, the pH of the final composition should be adapted to values between about 6-8 and preferably between about pH 7-7.5 by adding a small amount of sodium bicarbonate or other pH regulating agents.

Structure (SMILES) | daily intake not associated with adverse effects [1] [mg per day] | daily intake not associated with adverse effects, per bodyweight ([1]; equivalent of the mg per day level) | effect on the ciliary beat frequency (ciliated cells)
Cn1c(=O)c2c(ncn2C)n(C)c1=O [Caffeine, 1,3,7-trimethylxanthine] | < 400 | about 6 mg/kg bodyweight | 
O=C1O[C@H]([C@@H](O)CO)C(O)=C1O [ascorbic acid] |  |  | increases the ciliary beat frequency
